Test results from patent EP1935887A1, “Heterocyclic substituted carbonyl derivatives and their use as dopamine D3 receptor ligands” (Aventis Pharmaceuticals Inc., priority 2001, dated 2002).

target: T1, Cloned Human Dopamine D3 Receptors (Homo sapiens, UniProt P35462); assay: [N-Methyl-3H]Spiroperidol binding to cloned human dopamine D3 receptors; conditions: Table 2; unit inferred; read-out: d3Ki
T1 construct: expressed in transfected cells; membrane homogenate
How it was run: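 Membranes from CHO cells stably expressing human D3 receptor, homogenised in 10% DMSO and stored at -80°C. Binding uses [N-methyl-3H]spiroperidol in Tris buffer, pH 7.7.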

T1 sequence (P35462 whole entry): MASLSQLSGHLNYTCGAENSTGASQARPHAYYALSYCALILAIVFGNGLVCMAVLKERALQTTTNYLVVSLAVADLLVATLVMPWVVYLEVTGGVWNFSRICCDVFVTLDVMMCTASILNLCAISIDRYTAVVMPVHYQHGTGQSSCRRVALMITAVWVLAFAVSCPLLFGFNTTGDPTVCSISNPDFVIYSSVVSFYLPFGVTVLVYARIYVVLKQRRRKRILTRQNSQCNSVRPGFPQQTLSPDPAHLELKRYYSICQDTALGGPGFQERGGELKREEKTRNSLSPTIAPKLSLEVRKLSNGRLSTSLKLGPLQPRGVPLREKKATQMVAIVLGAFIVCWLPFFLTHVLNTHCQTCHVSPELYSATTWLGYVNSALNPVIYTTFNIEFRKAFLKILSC

In order of falling Ki:
1. C[C@H]1CC[C@H](NC(=O)CCCN2CCN(c3csc4cc(C(F)(F)F)ccc34)CC2Cc2ccccc2)CC1 (some centres unmarked) [compound 827055]  792 nM
2. CC[C@H]1CC[C@H](NC(=O)CCCN2CCN(c3csc4cc(F)ccc34)CC2CCCc2ccccc2)CC1 (some centres unmarked) [compound 827107]  489 nM
3. CCOC(=O)[C@H]1CC[C@H](NC(=O)CCCN2CCN(c3csc4cc(C(F)(F)F)ccc34)CC2CCc2ccccc2)CC1 (some centres unmarked) [compound 827071]  454 nM
4. CCN(C(=O)CCCN1CCN(c2csc3cc(F)ccc23)CC1Cc1ccccc1)C1CCCCC1 (centres unmarked) [compound 827090]  346 nM
5. CCOC(=O)C1CCC(NC(=O)CCCN2CCN(c3csc4cc(F)ccc34)CC2Cc2ccccc2)CC1 (centres unmarked) [compound 827086]  334 nM
6. CCOC(=O)C1CCC(NC(=O)CCCN2CCN(c3csc4cc(F)ccc34)CC2CCCc2ccccc2)CC1 (centres unmarked) [compound 827106]  317 nM
7. CN(C(=O)CCCN1CCN(c2csc3cc(F)ccc23)CC1Cc1ccccc1)C1CCCCC1 (centres unmarked) [compound 827089]  307 nM
8. CC1CCCC(NC(=O)CCCN2CCN(c3csc4cc(F)ccc34)CC2CCCc2ccccc2)C1 (centres unmarked) [compound 827108]  302 nM
9. CC1CCCC(NC(=O)CCCN2CCN(c3csc4cc(F)ccc34)CC2Cc2ccccc2)C1 (centres unmarked) [compound 827088]  284 nM
10. CN(C(=O)CCCN1CCN(c2csc3cc(C(F)(F)F)ccc23)CC1CCc1ccccc1)C1CCCCC1 (centres unmarked) [compound 827074]  267 nM
11. O=C(CCCN1CCN(c2csc3cc(F)ccc23)CC1Cc1ccccc1)NC1CCCCC1 (centres unmarked) [compound 827102]  218 nM
12. CCN(C(=O)CCCN1CCN(c2csc3cc(F)ccc23)CC1CCCc1ccccc1)C1CCCCC1 (centres unmarked) [compound 827110]  208 nM
13. CCC1CCC(NC(=O)CCCN2CCN(c3csc4cc(F)ccc34)CC2Cc2ccccc2)CC1 (centres unmarked) [compound 827087]  178 nM
14. O=C(CCCN1CCN(c2csc3cc(F)ccc23)CC1Cc1ccccc1)NC1CCCC1 (centres unmarked) [compound 827101]  148 nM
15. O=C(CCCN1CCN(c2csc3cc(F)ccc23)CC1CCCc1ccccc1)N(CCO)C1CCCCC1 (centres unmarked) [compound 827111]  143 nM
16. CN(C(=O)CCCN1CCN(c2csc3cc(C(F)(F)F)ccc23)CC1CCCc1ccccc1)C1CCCCC1 (centres unmarked) [compound 827079]  126 nM
17. C[C@H]1CC[C@H](NC(=O)CCCN2CCN(c3csc4cc(F)ccc34)CC2CCCc2ccccc2)CC1 (some centres unmarked) [compound 827105]  117 nM
18. CN(C(=O)CCCN1CCN(c2csc3cc(F)ccc23)CC1CCCc1ccccc1)C1CCCCC1 (centres unmarked) [compound 827109]  78.6 nM

same assay, conditions: Table 2 part the 10th table; read-out: d3Ki

In order of falling Ki:
1. O=C(CCCN1CCN(c2csc3cc(C(F)(F)F)ccc23)CC1Cc1ccccc1)N1CCC(O)CC1 (centres unmarked) [compound 827063]  373 nM
2. Cc1cccc(C)c1NC[C@@H]1CCCN1C(=O)[C@@H]1C[C@H]1CN1CCN(c2csc3cc(C(F)(F)F)ccc23)CC1 [compound 826919]  329 nM
3. CCOC(=O)C1CCN(C(=O)CCCN2CCN(c3csc4cc(C(F)(F)F)ccc34)CC2CCCc2ccccc2)CC1 (centres unmarked) [compound 827082]  303 nM
4. O=C(CCCN1CCN(c2csc3cc(C(F)(F)F)ccc23)CC1Cc1ccccc1)N1CCC(N2CCCC2)CC1 (centres unmarked) [compound 827067]  268 nM
5. CC1CCCCN1C(=O)CCCN1CCN(c2csc3cc(C(F)(F)F)ccc23)CC1CCCc1ccccc1 (centres unmarked) [compound 827084]  266 nM
6. CC1CCCN(C(=O)CCCN2CCN(c3csc4cc(C(F)(F)F)ccc34)CC2Cc2ccccc2)C1 (centres unmarked) [compound 827066]  209 nM
7. CC1(C)CCCN(C(=O)CCCN2CCN(c3csc4cc(C(F)(F)F)ccc34)CC2Cc2ccccc2)C1 (centres unmarked) [compound 827068]  197 nM
8. COC[C@@H]1CCCN1C(=O)[C@@H]1C[C@H]1CN1CCN(c2csc3cc(C(F)(F)F)ccc23)CC1 [compound 826917]  196 nM
9. CC(=O)N(C)C1CCN(C(=O)[C@@H]2C[C@H]2CN2CCN(c3csc4cc(C(F)(F)F)ccc34)CC2)C1 (some centres unmarked) [compound 826921]  183 nM
10. CC(=O)N[C@@H]1CCN(C(=O)[C@@H]2C[C@H]2CN2CCN(c3csc4cc(C(F)(F)F)ccc34)CC2)C1 [compound 826922]  183 nM
11. O=C([C@@H]1C[C@H]1CN1CCN(c2csc3cc(C(F)(F)F)ccc23)CC1)N1CCC(O)(c2ccc(Cl)cc2)CC1 [compound 826900]  181 nM
12. CC1CCN(C(=O)CCCN2CCN(c3csc4cc(C(F)(F)F)ccc34)CC2Cc2ccccc2)CC1 (centres unmarked) [compound 827065]  168 nM
13. O=C([C@@H]1C[C@H]1CN1CCN(c2csc3cc(C(F)(F)F)ccc23)CC1)N1CCC[C@H]1CNc1ccccc1 [compound 826916]  157 nM
14. CC1CC(C)CN(C(=O)CCCN2CCN(c3csc4cc(F)ccc34)CC2Cc2ccccc2)C1 (centres unmarked) [compound 827099]  144 nM
15. COC[C@H]1CCCN1C(=O)[C@@H]1C[C@H]1CN1CCN(c2csc3cc(C(F)(F)F)ccc23)CC1 [compound 826923]  141 nM
16. CN(C)C1CCN(C(=O)CCCN2CCN(c3csc4cc(F)ccc34)CC2Cc2ccccc2)C1 (centres unmarked) [compound 827104]  141 nM
17. CCOC(=O)C1CCN(C(=O)CCCN2CCN(c3csc4cc(F)ccc34)CC2CCCc2ccccc2)CC1 (centres unmarked) [compound 827112]  126 nM
18. CC1CCCCN1C(=O)CCCN1CCN(c2csc3cc(F)ccc23)CC1CCCc1ccccc1 (centres unmarked) [compound 827114]  120 nM
19. O=C([C@@H]1C[C@H]1CN1CCN(c2csc3cc(C(F)(F)F)ccc23)CC1)N1CCC(O)C1 (some centres unmarked) [compound 826914]  101 nM
20. O=C(CCCN1CCN(c2csc3cc(F)ccc23)CC1CCCc1ccccc1)N1CCC(O)CC1 (centres unmarked) [compound 827113]  95 nM
21. O=C([C@@H]1C[C@H]1CN1CCN(c2csc3cc(C(F)(F)F)ccc23)CC1)N1CCC(O)(c2ccccc2)CC1 [compound 826911]  93 nM
22. CC1(C)CC2CC(C)(CN2C(=O)[C@@H]2C[C@H]2CN2CCN(c3csc4cc(C(F)(F)F)ccc34)CC2)C1 (some centres unmarked) [compound 826896]  89.5 nM
23. CN(C)[C@H]1CCN(C(=O)[C@@H]2C[C@H]2CN2CCN(c3csc4cc(C(F)(F)F)ccc34)CC2)C1 [compound 826926]  86.5 nM
24. CC1CC(C)CN(C(=O)[C@@H]2C[C@H]2CN2CCN(c3csc4cc(C(F)(F)F)ccc34)CC2)C1 (some centres unmarked) [compound 826913]  86.1 nM
25. O=C(CCCN1CCN(c2csc3cc(F)ccc23)CC1Cc1ccccc1)N1CCC(O)CC1 (centres unmarked) [compound 827093]  84 nM
26. CC1(C)CCCN(C(=O)CCCN2CCN(c3csc4cc(F)ccc34)CC2Cc2ccccc2)C1 (centres unmarked) [compound 827098]  82.9 nM
27. CC1CCCN1C(=O)CCCN1CCN(c2csc3cc(F)ccc23)CC1Cc1ccccc1 (centres unmarked) [compound 827103]  81.7 nM
28. O=C([C@@H]1C[C@H]1CN1CCN(c2csc3cc(C(F)(F)F)ccc23)CC1)N1CCC[C@H]1CO [compound 826920]  67.6 nM
29. O=C(CCCN1CCN(c2csc3cc(F)ccc23)CC1Cc1ccccc1)N1CCCC1 (centres unmarked) [compound 827100]  63.5 nM
30. CC1(C)CCCN(C(=O)[C@@H]2C[C@H]2CN2CCN(c3csc4cc(C(F)(F)F)ccc34)CC2)C1 [compound 826912]  58.5 nM
31. O=C(CCCN1CCN(c2csc3cc(F)ccc23)CC1Cc1ccccc1)N1CCC(N2CCCC2)CC1 (centres unmarked) [compound 827097]  51.5 nM
32. CCOC(=O)C1CCN(C(=O)[C@@H]2C[C@H]2CN2CCN(c3csc4cc(C(F)(F)F)ccc34)CC2)CC1 [compound 826899]  45.5 nM
33. CC1CCCN(C(=O)CCCN2CCN(c3csc4cc(F)ccc34)CC2Cc2ccccc2)C1 (centres unmarked) [compound 827096]  44.7 nM
34. CC1CCN(C(=O)[C@@H]2C[C@H]2CN2CCN(c3csc4cc(C(F)(F)F)ccc34)CC2)CC1 [compound 826906]  39.5 nM
35. NC(=O)C1CCCN(C(=O)[C@@H]2C[C@H]2CN2CCN(c3csc4cc(C(F)(F)F)ccc34)CC2)C1 (some centres unmarked) [compound 826904]  39.4 nM
36. CC1CCN(C(=O)CCCN2CCN(c3csc4cc(F)ccc34)CC2Cc2ccccc2)CC1 (centres unmarked) [compound 827095]  37.8 nM
37. CC1CCCCN1C(=O)CCCN1CCN(c2csc3cc(F)ccc23)CC1Cc1ccccc1 (centres unmarked) [compound 827094]  34.6 nM
38. CC1CCCN1C(=O)[C@@H]1C[C@H]1CN1CCN(c2csc3cc(C(F)(F)F)ccc23)CC1 (some centres unmarked) [compound 826918]  30.3 nM
39. CCOC(=O)C1CCCN(C(=O)[C@@H]2C[C@H]2CN2CCN(c3csc4cc(C(F)(F)F)ccc34)CC2)C1 (some centres unmarked) [compound 826909]  28.9 nM
40. CC1CCCN(C(=O)[C@@H]2C[C@H]2CN2CCN(c3csc4cc(C(F)(F)F)ccc34)CC2)C1 (some centres unmarked) [compound 826907]  18.8 nM
41. O=C([C@@H]1C[C@H]1CN1CCN(c2csc3cc(C(F)(F)F)ccc23)CC1)N1CCC(N2CCCCC2)CC1 [compound 826910]  17.5 nM
42. CC1CCCCN1C(=O)[C@@H]1C[C@H]1CN1CCN(c2csc3cc(C(F)(F)F)ccc23)CC1 (some centres unmarked) [compound 826905]  14.5 nM
43. O=C([C@@H]1C[C@H]1CN1CCN(c2csc3cc(C(F)(F)F)ccc23)CC1)N1CCCC(O)C1 (some centres unmarked) [compound 826902]  13.1 nM
44. CC1CCC(C)N1C(=O)[C@@H]1C[C@H]1CN1CCN(c2csc3cc(C(F)(F)F)ccc23)CC1 (some centres unmarked) [compound 826928]  11.2 nM
45. O=C([C@@H]1C[C@H]1CN1CCN(c2csc3cc(C(F)(F)F)ccc23)CC1)N1CCC(n2c(=O)[nH]c3ccccc32)CC1 [compound 826903]  7.47 nM
46. CCN(CC)C(=O)C1CCCN(C(=O)[C@@H]2C[C@H]2CN2CCN(c3csc4cc(C(F)(F)F)ccc34)CC2)C1 (some centres unmarked) [compound 826908]  7.06 nM

same assay, conditions: d3Ki, Table 2 part the 10th table

Work on O=C1CCN(C(=O)[C@@H]2C[C@H]2CN2CCN(c3csc4cc(C(F)(F)F)ccc34)CC2)CC1 [compound 826901] yielded a Ki of 42.4 nM.

same assay, conditions: read-out: d3Ki

In order of falling Ki:
1. CCOC(=O)[C@H]1CCCC[C@H]1NC(=O)[C@@H]1C[C@H]1CN1CCN(c2csc3cc(C(F)(F)F)ccc23)CC1 [compound 826897]  128 nM
2. CCOC(=O)[C@H]1CCCC[C@@H]1NC(=O)[C@@H]1C[C@H]1CN1CCN(c2csc3cc(C(F)(F)F)ccc23)CC1 [compound 826898]  50.5 nM
3. O=C([C@@H]1C[C@H]1CN1CCN(c2csc3cc(C(F)(F)F)ccc23)CC1)N(CCO)C1CCCCC1 [compound 826895]  48.8 nM
